The values that follow are results of earlier work, collected in PMC9516332 (Frontiers in Oncology, 2022).

Data set [1] concerns the target panel of 255 wild-type kinases (Homo sapiens, UniProt P41240). The note with it: kinase CSK; 1 µmol/L single concentration; ref DOI: 10.1371/journal.pone.0092146; cited from earlier work.
For data set [2], the target named is panel of 255 wild-type kinases (Homo sapiens, UniProt P12931). The note with it: kinase SRC; 1 µmol/L single concentration; ref DOI: 10.1371/journal.pone.0092146; cited from earlier work.
In data set [3] the target is panel of 255 wild-type kinases (Homo sapiens, UniProt O60674). The settings on record: kinase JAK2; 1 µmol/L single concentration; ref DOI: 10.1371/journal.pone.0092146; cited from earlier work.
For data set [4], the target named is panel of 255 wild-type kinases (Homo sapiens, UniProt P17252). The settings on record: kinase PKCα; 1 µmol/L single concentration; ref DOI: 10.1371/journal.pone.0092146; cited from earlier work.
Data set [5] has as its target panel of 255 wild-type kinases (Homo sapiens, UniProt P50750). The settings on record: CDK9/CycT1 kinase assay; 1 µmol/L single concentration; ref DOI: 10.1371/journal.pone.0092146; cited from earlier work.
For data set [6], the target named is panel of 255 wild-type kinases (Homo sapiens, UniProt Q13555). The settings on record: CaMK2γ kinase assay; 1 µmol/L single concentration; ref DOI: 10.1371/journal.pone.0092146; cited from earlier work.
In data set [7] the target is panel of 255 wild-type kinases (Homo sapiens, UniProt P16591). The note with it: kinase FER; 1 µmol/L single concentration; ref DOI: 10.1371/journal.pone.0092146; cited from earlier work.
The target of data set [8] is T1, panel of 255 wild-type kinases (Homo sapiens, UniProt P30530).
T1 sequence (P30530 26-894): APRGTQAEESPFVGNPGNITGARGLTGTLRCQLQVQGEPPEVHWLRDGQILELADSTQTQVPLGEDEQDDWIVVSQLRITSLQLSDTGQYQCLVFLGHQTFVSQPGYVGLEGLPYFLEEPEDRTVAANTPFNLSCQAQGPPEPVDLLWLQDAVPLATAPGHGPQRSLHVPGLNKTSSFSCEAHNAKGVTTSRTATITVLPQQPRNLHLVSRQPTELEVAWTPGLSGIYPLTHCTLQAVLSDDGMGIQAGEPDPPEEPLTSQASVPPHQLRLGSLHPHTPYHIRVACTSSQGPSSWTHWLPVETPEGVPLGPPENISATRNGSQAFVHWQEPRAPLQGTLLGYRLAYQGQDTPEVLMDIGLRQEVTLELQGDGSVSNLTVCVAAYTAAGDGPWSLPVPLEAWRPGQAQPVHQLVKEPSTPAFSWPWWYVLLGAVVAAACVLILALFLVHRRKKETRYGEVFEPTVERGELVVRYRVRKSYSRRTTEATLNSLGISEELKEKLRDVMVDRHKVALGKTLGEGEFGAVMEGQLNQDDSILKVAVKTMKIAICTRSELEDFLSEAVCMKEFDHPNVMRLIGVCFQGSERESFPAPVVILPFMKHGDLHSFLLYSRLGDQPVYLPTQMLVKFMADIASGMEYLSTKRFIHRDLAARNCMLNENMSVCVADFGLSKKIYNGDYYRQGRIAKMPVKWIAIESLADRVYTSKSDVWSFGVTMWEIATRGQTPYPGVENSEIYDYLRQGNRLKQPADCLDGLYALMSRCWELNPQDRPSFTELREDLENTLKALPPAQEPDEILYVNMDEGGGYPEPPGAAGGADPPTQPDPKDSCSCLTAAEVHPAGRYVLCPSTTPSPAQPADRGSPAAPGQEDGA
The note with it: AXL kinase assay; 1 µmol/L single concentration; ref DOI: 10.1371/journal.pone.0092146; cited from earlier work.

In data set [9] the target is panel of 255 wild-type kinases (Homo sapiens, UniProt O75116). The settings on record: kinase ROCK2; 1 µmol/L single concentration; ref DOI: 10.1371/journal.pone.0092146; cited from earlier work.
Data set [10] has as its target T2, panel of 255 wild-type kinases (Homo sapiens, UniProt Q9HBY8).
T2 sequence (Q9HBY8 1-367): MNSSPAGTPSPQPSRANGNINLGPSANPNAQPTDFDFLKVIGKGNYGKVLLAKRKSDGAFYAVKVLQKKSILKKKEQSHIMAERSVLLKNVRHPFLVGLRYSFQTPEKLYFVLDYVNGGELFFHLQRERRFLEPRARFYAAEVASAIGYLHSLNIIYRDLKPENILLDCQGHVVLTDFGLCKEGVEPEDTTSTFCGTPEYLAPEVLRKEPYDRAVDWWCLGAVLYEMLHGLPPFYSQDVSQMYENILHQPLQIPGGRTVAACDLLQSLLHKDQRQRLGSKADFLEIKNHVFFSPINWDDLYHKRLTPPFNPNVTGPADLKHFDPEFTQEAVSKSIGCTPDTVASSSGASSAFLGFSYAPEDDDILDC
The settings on record: kinase SGK2; 1 µmol/L single concentration; ref DOI: 10.1371/journal.pone.0092146; cited from earlier work.

As for `CC(=O)Nc1cccc(-n2c(=O)n(C3CC3)c(=O)c3c(Nc4ccc(I)cc4F)n(C)c(=O)c(C)c32)c1` [trametinib], the “%-inhibition at 1 µmol/L, CSK” value in [1] is -2.83%. The “%-inhibition at 1 µmol/L, SRC” value in [2] is -5.4%. Also, the “%-inhibition at 1 µmol/L, JAK2” value in data set [3] is reported as 1.75%. Moreover, the “%-inhibition at 1 µmol/L, PKCα” value in data set [4] is -5%. Further, the “%-inhibition CDK9/CycT1” value in data set [5] was -2.31%. Also, the “%-inhibition CaMK2γ” value in data set [6] is on record as 7%. In addition, the “%-inhibition at 1 µmol/L, FER” value in data set [7] was 4.28%. For the same molecule, in data set [8], the “%-inhibition AXL” value is -1.12%. For the same molecule, the “%-inhibition at 1 µmol/L, ROCK2” value in data set [9] was 3%. In data set [10], the “%-inhibition at 1 µmol/L, SGK2” value is recorded as -7%.
In the case of `CCCS(=O)(=O)Nc1ccc(F)c(C(=O)c2c[nH]c3ncc(-c4ccc(Cl)cc4)cc23)c1F` [vemurafenib], in [1], the “%-inhibition at 1 µmol/L, CSK” value was 76%. Moreover, the “%-inhibition at 1 µmol/L, SRC” value in data set [2] is 52%. Moreover, in [3], the “%-inhibition at 1 µmol/L, JAK2” value is 18%. The “%-inhibition at 1 µmol/L, PKCα” value in data set [4] was -3.61%. The “%-inhibition CDK9/CycT1” value in data set [5] is given as 1.33%. Also, in [6], the “%-inhibition CaMK2γ” value is -10%. Besides, the “%-inhibition at 1 µmol/L, FER” value in [7] is 11%. In addition, the “%-inhibition AXL” value in data set [8] was 20%. Also, in data set [9], the “%-inhibition at 1 µmol/L, ROCK2” value was -0.177%. In addition, in data set [10], the “%-inhibition at 1 µmol/L, SGK2” value is 2.66%.
